Data published in paper PMC6107127, “Characteristics of the mitochondrial and cellular uptake of MPP^+, as probed by the fluorescent mimic, 4'I-MPP^+” (PLoS ONE, 2018).

Key:
[1] = test system: HepG2 cells; test: Intracellular ATP levels; type: cell-based, human; conditions: 100 μM, 6 h at 37 °C
Method: (§1) Cells grown in 12-well plates were treated with 100 μM MPP^+ or 4'I-MPP^+ in KRB-HEPES for 6 h at 37 °C. After the treatments, cells were suspended in 1 mL of ice-cold KRB-HEPES and 50 μL samples were withdrawn for protein quantification. The remaining cell suspensions were centrifuged for 3 min at 3,500 x g at 4 °C and the cell pellets were treated with 1 mL of lysis buffer (0.1 M Tris, 1% Triton X-100, pH 7.5) for 2 min and centrifuged at 3,500 x g for 3 min to remove the cell debris. The ATP contents of the supernatants were measured using a fluorometric ATP assay kit (BioVision, Milpitas CA, USA) following the manufacture’s guidelines. All ATP levels were normalized to the protein content of each sample.

[2] = test system: MN9D cells; test: Intracellular ROS (DCFH-DA); type: cell-based, mouse; conditions: 100 μM, 1 h at 37 °C
Method: Cells grown in 12-well plates were incubated with 10 μM DCFH-DA in KRB-HEPES for 1 h. […] After the incubations, cells were washed, harvested, solubilized with 0.1 M Tris buffer (pH 7.5) containing 1% Triton X-100, and cell debris were removed by centrifugation at 13,200 x g for 8 min at 4 °C. The content of ROS-oxidized DCFH product, 2',7'-dichlorofluorescein (DCF) in the supernatants were quantified by fluorescence (Ex/Em 488/524 nm). The data were normalized to the protein contents of individual samples. ROS productions in DCFH-DA (50 μM) loaded 250 μM 4'I-MPP^+ treated (4 h) live MN9D cells were visualized by confocal fluorescence microscopy at Ex/Em 488/524 nm using a Leica TCS SP5II microscope.

[3] = test system: MN9D cells; test: Intracellular ATP levels; type: cell-based, mouse; conditions: 100 μM, 6 h at 37 °C
Method: as §1

[4] = test system: HepG2 cells; test: Cellular uptake of MPP+ and 4'I-MPP+ (HPLC-UV / fluorescence); type: cell-based, human; conditions: 100 μM toxin, 40 min
Method: Cells were seeded into 12-well plates at 0.25 x 10^6 cells/well and grown 2–3 days to about 70–80% confluency. The media was removed and a solution containing 100 μM MPP^+ or 4'I-MPP^+ in warm KRB-HEPES (or without Ca^2+ and with 1.4 mM EGTA) was added to each well and incubated at 37 °C for the desired period of time (see Figure legends for further details). After the incubations, the media were removed and cells were washed with ice-cold KRB-HEPES. Washed cells were suspended in 1.0 mL of ice-cold KRB-HEPES and 50 μL aliquots were withdrawn for protein determination. The remaining cell suspensions were centrifuged at 5000 x g at 4 °C for 5 min and the cell pellets were treated with 75 μL of 0.1 M HClO4. The coagulated proteins were pelleted by centrifugation at 13,200 x g at 4 °C for 8 min and the MPP^+ or 4'I-MPP^+ contents of the supernatants were determined by C18-reversed-phase HPLC-UV (HPLC-UV) as previously described using standard curves constructed from authentic standards. The standard curves for HPLC-UV quantifications were constructed using authentic samples of MPP^+ and 4'I-MPP^+ under the same HPLC-UV separation conditions (S1 Fig).
To quantify 4'I-MPP^+ uptake by fluorescence, MN9D or HepG2 cells grown in glass bottomed plates, washed, and reconstituted with KRB-HEPES (1.0 mL), pH 7.4, and mounted on the stage of a Nikon ECLIPSE Ti-S inverted fluorescence microscope. […]

[5] = test system: HepG2 cells; test: MTT cell viability assay; type: cell-based, human
Method: Cell viability was determined by the MTT [3-(4,5-dimethylthiazol-2-yl)-2,5-diphenyltetrazolium bromide)] assay. Briefly, cells were seeded on 96-well plates and allowed to grow to about 70–80% confluence. Prior to the experiment, culture media was replaced with KRB-HCO3^- containing desired concentrations of MPP^+ or 4'I-MPP^+ and incubated for 16 h at 37 °C. After the incubation, 10 μL of 5 mg/mL MTT solution was added to each well and incubated for 2 h at 37 °C. The resulting formazan was solubilized by the addition of 210 μL detergent solution [50% DMF/H2O (v/v), 20% SDS (w/v)] followed by incubation at 37 °C for 12 h. The cell viabilities were determined by quantifying solubilized formazan by measuring the difference in the absorbance at 570 nm and 650 nm. Results were expressed as % viability of MPP^+ or 4'I-MPP^+ treated cells with respect to control cells, which were treated under the same conditions except in the absence of the MPP^+ or 4'I-MPP^+.

[6] = Relative HPLC elution times and hydrophobicities; type: physicochemical
[7] = test system: MN9D or HepG2 cells; test: Mitochondrial membrane potential depolarization (TMRM); type: cell-based; conditions: 100 μM
Method: MN9D or HepG2 cells grown in glass-bottomed plates were treated with 50 nM TMRM (AnaSpec, Fremont CA, USA) in KRB-HEPES for 45 min in the dark. After mounting on the stage of a Nikon ECLIPSE Ti-S inverted fluorescence microscope, 15–20 ROIs with uniform fluorescence were selected and TMRM fluorescence at Ex/Em at 543/573 nm was recorded at 5 sec time intervals for 3 min. Then, MPP^+ or 4'I-MPP^+ was added to a final concentration of 500 or 100 μM, respectively and TMRM fluorescence measurements were continued for an additional 40 min for MPP^+ and 15 min for 4'I-MPP^+ at 15 sec time intervals. The background fluorescence was subtracted from the ROI fluorescence and averages of corrected data were used to estimate the magnitude of the mitochondrial membrane potential.

[8] = test system: MN9D cells; test: Chromatin condensation test for apoptosis (DAPI); type: cell-based, mouse; conditions: 250 μM, 12 h
Method: MN9D cells grown in glass-bottomed plates were treated with 250 μM MPP^+ or 4'I- MPP^+ for 12 h and then with 300 nM DAPI in KRB-HEPES for 15 min in the dark at 37 °C [24]. Then cells were rinsed and PBS was added to cover the cell layer. Increase in nuclear DAPI fluorescence (Ex/Em at 358/461 nm) due to chromatin condensation was observed using a Nikon ECLIPSE Ti-S inverted fluorescence microscope. The controls were treated similarly except that MPP^+ or 4'I-MPP^+ was omitted from the initial incubation medium.

C[n+]1ccc(-c2ccc(I)cc2)cc1 [4'I-MPP^+, 1-methyl-4-(4'-iodophenyl)pyridinium]
effect on intracellular ATP levels [1]: deplete intracellular ATP levels | effect on ROS production [2]: increase ROS production | effect on intracellular ATP levels [3]: deplete intracellular ATP levels | cellular uptake in 40 min [4]: 1.4 nmoles/mg of protein | HepG2 cell toxicity ([5]; MPP+ at 0–1000 μM, 4'I-MPP+ at 0–200 μM, 16 h): resistant | concentration above which toxic to HepG2 cells ([5]; rough estimates, data not shown): above 250 μM | relative elution time (hydrophobicity) ([6]; Buffer:CH3CN 70:30): 11.76 | relative elution time (hydrophobicity) ([6]; Buffer:CH3CN:MeOH 60:30:10): 8.88 | relative elution time (hydrophobicity) ([6]; Buffer:CH3CN:MeOH 65:25:10): 12.56 | time to depolarize the mitochondrial membrane by 20–50% [7]: 20 min | apoptotic cell death (chromatin condensation) [8]: cause apoptotic MN9D cell death
